Test results published in patent US9351980B2, “Di-aspirin derivatives” (The University of Wolverhampton, priority 2010, dated 2016).

Tests used:
[1] = human subjects given analgesic doses of aspirin; cited from earlier work
colorectal cells = conditions: previously reported; cited from earlier work
SW480 cell line = experiment: MTT in vitro cytotoxicity assay on SW480 cells; assay type: cell-based
Procedure: The MTT assay was utilised with a 24 hour incubation period of cell exposure to the compound. […] Experiments were carried out in triplicate; error bars indicate standard deviation.
The carrier molecule utilised (DMSO) in these experiments to prepare stock solutions was buffered with Tris-HCl buffer pH8.0 (0.5M) to mitigate against any pH changes caused by the addition of compounds to cell culture medium. All data shown were normalised to cells exposed only to buffered carrier molecule.
The result shown is the average of three independent experiments (error bars indicate mean+/−SEM). For comparative purposes, compound toxicity is shown alongside the equivalent concentration of salicylic acid (SA) and aspirin (as tested using the MTT assay with a 72 hour incubation of SW480 cells with compound). The carrier molecule utilised in these experiments was DMSO (dimethyl sulphoxide); all data shown were normalised to cells exposed only to carrier molecule.

MAC13 tumour = experiment: Tumour volume in MAC 13 tumour bearing mice; assay type: in vivo; conditions: MAC13 tumour bearing NMRI mice, 1 mg/kg dissolved in PBS (FIG. 7)
Procedure: NMRI mice were treated with MAC13 cells (5×10^6) sub cut in their flanks (Hussey H J, Bibby […]; British J. of Cancer, 73, 1187-1192, 1996), were treated with example compounds. Once the tumour was established the tumour was dissected and small fragments re-transplanted into more mice. […] The mice were monitored daily-weight, food and water consumption and tumour size was recorded using calipers. The experiment ended when the control mouse tumours started to ulcerate.

[2] = tested on: SW480 colon carcinoma cell line, HCT-116 colon cancer cell line, MDA-231MB breast cancer cell line; experiment: MTT titration assay (cell viability, 24 hours) on colon versus breast cancer cell lines; assay type: cell-based
Procedure: In the examples, assays mentioned are standard cytotoxicity assays and cell cultures used are prepared under standard conditions. The MTT assay referred to is MTT [3-(4,5-Dimethylthiazol-2-yl)-2,5-diphenyltetrazolium-bromide] assay (Mosmann T; J Immunol Methods 65: 55-63, 1983).
In FIG. 2, the in vitro toxicity of BCS, compound 508 of table 1, was investigated in further detail by titration against the SW480 colon carcinoma cell line and the DNA mismatch repair deficient HCT-116 colon cancer cell line and the MDA-231MB breast cancer cell line again utilising the MTT assay as described previously. The concentration-effect relationship for the three different cells lines is given in FIG. 2 (error bars indicate mean+/−S.D.). All experiments were performed in triplicate. For clarity, carrier molecule (DMSO) toxicity of the equivalent concentration utilised is also shown.

| Structure (SMILES) | salicylate levels achievable in serum [1] [mM] | toxicity to colorectal cells in vitro (colorectal cells) | toxicity in comparison to aspirin (SW480 cell line; MTT assay, equivalent concentration of aspirin (FIG. 3, 48 hour incubation)) | specificity against the cell line derived from a colon cancer (SW480 cell line; SW480 versus MCF-7 and U373MG (FIG. 1), MTT) | tumour growth (MAC13 tumour) | specific toxicity to colorectal cancer cells ([2]; MTT titration, 24 hours, SW480, HCT-116 versus MDA-231MB) | selectivity for SW480 compared with MDA-231-MB cells ([2]; cell viability assay, colon carcinoma versus breast cancer-derived cell line) |
| --- | --- | --- | --- | --- | --- | --- | --- |
| CC(=O)Oc1ccccc1C(=O)O [Aspirin, acetylsalicylic acid] | > 1 | exhibit toxicity | – | – | – | – | – |
| O=C(CCC(=O)Oc1ccccc1C(=O)O)Oc1ccccc1C(=O)O [Compound 508, bis(2-carboxyphenyl) succinate] | – | – | more toxic in comparison to aspirin | retains a degree of specificity | decrease in tumour growth | specifically toxic to colorectal cancer cells | significantly more toxic to SW480 colorectal cancer cells than to MDA-231-MB cells |
| O=C(/C=C/C(=O)Oc1ccccc1C(=O)O)Oc1ccccc1C(=O)O [Compound 517, fumaroyldiaspirin] | – | – | – | – | decrease in tumour growth | – | – |
